Reference: patent publication US20260108480A1, “METHODS FOR INDUCING PROLIFERATION OF STEM CELLS” (UNIVERSITY OF PITTSBURGH-OF THE COMMONWEALTH SYSTEM OF …, priority 2022, published 2026)
“Also recorded” adds a separate entry of the source.

How the values were obtained:
[1] = test system: primary PRX1 expressing SSCs isolated from the calvarial sutures of PRX1-creER-EGFP mice; experiment: MTT proliferation assay of primary PRX1 expressing cells isolated from calvarial sutures; assay type: cell-based, mouse; settings: for ability to induce proliferation of primary PRX1 expressing SSCs (screen of 5 WNT inhibitors): most effective concentrations of previous studies, FIGS. 22A-22B
Description: (§1) FIGS. 22A-22H. […] (22A-22B) MTT proliferation assays of primary PRX1 expressing cells isolated from the calvarial sutures of PRX1-creER-EGFP+/+ mice. […] (22C) MTT proliferation assays of immortalized PRX1 expressing cells isolated from the calvarial sutures of PRX1-creER-EGFP+/+ mice. […] (22D-22F) Quantitative RT-PCR of osteoblast differentiation genes of immortalized PRX1 expressing cells isolated from the calvarial sutures of PRX1-creER-EGFP+/+ mice. […] (22G-22H) FAC-sorting analysis of tissue-cultured sutures isolated from of PRX1-creER-EGFP+/+ mice. Suture were explanted and cultured ex vivo.
(§2) WNT inhibitor candidates were identified by looking into cancer studies, as thousands of small molecules have been screened for their potential to inhibit WNT signaling in WNT-activated cancer cells (30). Several molecules have shown inhibition of canonical WNT activity in vitro but only few have been tested in vivo, in mice. Among those tested in vivo, 5 were selected because of their proven efficacy and safety: G007-LK (31), Pyrvinium (25,26), Quercetin (32,33), XAV939 (27), and Niclosamide (34). Actually, Niclosamide and Pyrvinium are anti-helminthic FDA-approved drugs (35,36) and Quercetin is a flavonol found in many fruits and vegetables that is used as an ingredient in supplements, beverages, or foods (33). […] Previous studies indicate that Niclosamide, besides inhibiting the WNT pathway, presents with various additional effects such as uncoupling oxidative phosphorylation and disrupting several different signaling pathways, including the NOTCH, mTORCT, NFkB, and STAT3 pathways (38-44).

[2] = test system: immortalized PRX1 expressing cells isolated from the calvarial sutures of PRX1-creER-EGFP+/+ mice; experiment: MTT proliferation assay of immortalized PRX1 expressing cells; assay type: cell-based, mouse; settings: after 48 hours (FIG. 22C)
Description: as §1
(§3) WNT inhibitor candidates were identified by looking into cancer studies, as thousands of small molecules have been screened for their potential to inhibit WNT signaling in WNT-activated cancer cells (30). Several molecules have shown inhibition of canonical WNT activity in vitro but only few have been tested in vivo, in mice. Among those tested in vivo, 5 were selected because of their proven efficacy and safety: G007-LK (31), Pyrvinium (25,26), Quercetin (32,33), XAV939 (27), and Niclosamide (34). Actually, Niclosamide and Pyrvinium are anti-helminthic FDA-approved drugs (35,36) and Quercetin is a flavonol found in many fruits and vegetables that is used as an ingredient in supplements, beverages, or foods (33). […]

[3] = test system: osteoblast differentiation genes (RUNX2, SP7, Osteocalcin) in immortalized PRX1 expressing cells; experiment: Quantitative RT-PCR of osteoblast differentiation genes in immortalized PRX1 expressing cells; assay type: cell-based, mouse
Description: as §1, §2

[4] = test system: GFP+ (PRX1 expressing) and GFP- cells of explanted calvarial sutures of PRX1-creER-EGFP+/+ mice; experiment: FAC-sorting analysis of tissue-cultured explanted sutures (ex vivo); assay type: cell-based, mouse
Description: as §1
However, no increase of GFP-cells (22H) is detected. All above studies (22A-22E) were repeated 2 or 3 times, with consistent results.
as §3, with “(34).” for “(34). Actually, Niclosamide and Pyrvinium are anti-helminthic FDA-approved drugs (35,36) and Quercetin is a flavonol found in many fruits and vegetables that is used as an ingredient in supplements, beverages, or foods (33).”

[5] = test system: PRX1 expressing SSCs; experiment: In vivo flow cytometry quantification of PRX1 expressing SSCs after IP treatment; design: species or system mouse; settings: 8-week old mice, 20 mg/Kg IP, 5 days/week
Method: (§4) FIGS. 23A-23D. […] (23A-23C) Flow cytometry was utilized to quantify the number of PRX1 expressing SSCs after treatment with Niclosamide (20 mg/kg of body weight, IP, 5 days/week, for 3 consecutive weeks) or with vehicle (control) in calvarial sutures (23A), in the periosteum of long bones (23B), and in the periodontal ligament of posterior molar teeth (23C). 4 mice/treatment (2 males and 2 females). (23D) Micro-computed tomography was utilized to measure bone mass (BV/TV) in the femurs of male and female mice after treatment with Niclosamide (20 mg/kg of body weight, IP, 5 days/week for 3 consecutive weeks) or with vehicle (control) (n=2). […] To do so, skeletally mature 8-week old mice were treated with intraperitoneal (IP) injections of Niclosamide (20 mg/Kg of body weight) or vehicle (control) 5 days/week, for 3 weeks (FIGS. 23A-23D).

[6] = Micro-computed tomography of femur bone mass (BV/TV) after IP treatment; assay type: in vivo, mouse; settings: male and female mice, 20 mg/Kg IP, 5 days/week, 3 weeks (FIG. 23D)
Method: as §4

[7] = test system: critical size calvarial bone defect; experiment: Local delivery in carboxymethylcellulose gel into critical size calvarial bone defect, μCT; assay type: in vivo, mouse; settings: 2 mm defect, 8 week old C57Bl/6 female mice, 10 μL 12% carboxymethylcellulose gel containing 100 μg niclosamide, 4 weeks after surgery, n=3
Method: Immediately after creation of the defect, 10 μL of a 12% carboxymethylcellulose gel (CONTROL) (24A) or 10 μL of a 12% carboxymethylcellulose gel containing 100 μg of niclosamide (TEST) (24B) were implanted within the bone defect. […] Student's t-test was used for statistical evaluation (n=3, ** indicates p<0.01). […] Immediately after creation of the defect, 10 μL of a 12% carboxymethylcellulose gel (CONTROL) or 10 μL of a 12% carboxymethylcellulose gel containing 100 g of niclosamide (TEST) were implanted within the bone defect (FIGS. 24A-24B). Bone regeneration was assessed by means of μCT, 4 weeks after surgery (FIG. 25). Student's t-test was used for statistical evaluation (n=3, ** indicates p<0.01).

[8] = test system: periodontal ligament stem cells expressing Prx1 from mouse incisors; experiment: Flow cytometry quantification of Prx1 (GFP) expressing periodontal ligament cells in vitro; assay type: cell-based; settings: 48 hours
Description: To perform these studies, transgenic mice was utilized expressing green fluorescent protein (GFP) under the Prx1 promoter. Thus, using these transgenic mice, quantification of GFP expressing cells by means of flow cytometry can be utilized to quantify Prx1 expressing cells.

[9] = test system: critical size calvarial bone defect; experiment: Local delivery absorbed into a collagen sponge into critical size calvarial bone defect, μCT; assay type: in vivo, mouse; settings: collagen sponge carrying 5 μg or 50 μg
Method: To test whether Niclosamide can induce bone regeneration when delivered by means of a collagen sponge instead of a methylcellulose gel, a critical size calvarial bone defect was created (2 mm in diameter) in the right parietal bone of skeletally mature C57Bl/6 female mice (8 week old mice). Immediately after creation of the defect, 5 μL of a 1 pg/pl solution of Niclosamide (dissolved in DMSO) or 5 μl of a 10 μg/μl solution of Niclosamide (dissolved in DMSO) were absorbed into a 1 mm×1 mm×1 mm collagen sponge. Then, the sponge carrying either 5 μg or 50 μg of Niclosamide was implanted into the calvarial bone defects (n=3). Bone defects of the control groups received collagen sponges absorbed with equal volumes (5 μl) of DMSO only Bone regeneration was assessed by means of μCT, 8 weeks after surgery (FIGS. 27A-27C) 3D rendering, (FIG. 27D) quantitative assessment of the regenerated Bone Volume (BV) within the Total Volume (TV) of the calvarial bone defects).

| Structure (SMILES) | proliferation (MTT) of primary PRX1 expressing cells ([1]; after 24 hours (FIG. 22A)) | proliferation (MTT) of primary PRX1 expressing cells ([1]; after 48 hours (FIG. 22B)) | effect on proliferation compared with the other screened molecules ([1]; comparison with Pyrvinium and Quercetin) | ability to induce proliferation of primary PRX1 expressing SSCs (screen of 5 WNT inhibitors) [1] | proliferation (MTT) of immortalized PRX1 expressing cells [2] | osteoblastic differentiation of PRX1 expressing SSCs (qRT-PCR) ([3]; FIGS. 22D-22F) | expression of RUNX2 (qRT-PCR) ([3]; immortalized PRX1 expressing cells, after 48 hours (FIG. 22D)) | expression of SP7 (qRT-PCR) ([3]; immortalized PRX1 expressing cells, after 48 hours (FIG. 22E)) | expression of Osteocalcin (OCN) (qRT-PCR) ([3]; immortalized PRX1 expressing cells, after 48 hours (FIG. 22F)) | GFP+ cells (PRX1 expressing cells) in explanted sutures ([4]; 2 weeks of incubation (FIG. 22G)) | GFP- cells (other cells of the sutures) in explanted sutures ([4]; 2 weeks of incubation (FIG. 22H)) | proliferation of PRX1 expressing SSCs in the calvarial sutures ([5]; 3 weeks (FIG. 23A)) | proliferation of PRX1 expressing SSCs in the periosteum of long bones ([5]; 3 weeks (FIG. 23B)) | proliferation of PRX1 expressing SSCs in the periodontal ligament of the mouse molars ([5]; 3 weeks (FIG. 23C)) | bone mass (BV/TV) of femurs [6] | bone regeneration by μCT [7] | number of Prx1 expressing (GFP) cells ([8]; 0.2 μM and 2 μM, more significant increases with higher doses) | increase of number of Prx1 expressing (GFP) cells ([8]; 2 μM, flow cytometry (FIG. 26E)) [folds] | regenerated Bone Volume (BV) within Total Volume (TV) of the defect by μCT ([9]; 2 mm defect, 8 week old C57Bl/6 female mice, 8 weeks after surgery, n=3, not statistically significant) | adverse events / general health ([9]; 8 weeks) |
| --- | --- | --- | --- | --- | --- | --- | --- | --- | --- | --- | --- | --- | --- | --- | --- | --- | --- | --- | --- | --- |
| O=C(Nc1ccc([N+](=O)[O-])cc1Cl)c1cc(Cl)ccc1O [Niclosamide] | statistically significant proliferation | statistically significant proliferation | most significant and prolonged effect | able to consistently induce proliferation | could induce proliferation; also recorded: statistically significant proliferation | inhibits their osteoblastic differentiation | statistically significant downregulation | statistically significant downregulation | statistically significant downregulation | proliferation of the PRX1 expressing SSCs was observed; also recorded: statistically significant increase | could not be detected; also recorded: no increase | induces proliferation | induces proliferation | induces proliferation | does not significantly reduce the bone mass | substantial amount of bone regeneration | increase in number | ~3.5 | trend of increasing of the regenerated bone mass | no adverse events were recorded |
| Cc1cc(/C=C/c2ccc3cc(N(C)C)ccc3[n+]2C)c(C)n1-c1ccccc1 [Pyrvinium] | statistically significant proliferation | statistically significant proliferation | – | able to consistently induce proliferation | – | – | – | – | – | – | – | – | – | – | – | – | – | – | – | – |
| O=c1c(O)c(-c2ccc(O)c(O)c2)oc2cc(O)cc(O)c12 [Quercetin] | – | – | – | able to consistently induce proliferation | – | – | – | – | – | – | – | – | – | – | – | – | – | – | – | – |
